Source: patent US12527325B2, “Pesticidally active diazine-amide compounds” (SYNGENTA CROP PROTECTION AG, priority 2019, dated 2026)

Columns and labels:
Type in all cases: in vivo
Euschistus heros = experiment: Example B2: Euschistus heros (Neotropical Brown Stink Bug); settings: 120 h, application rate of 200 ppm, sprayed soybean leaves, N2 nymphs, 5 days after infestation, read-out: control in at least one of the two categories (mortality or growth inhibition)
Description: Example B2: Euschistus heros (Neotropical Brown Stink Bug)
Soybean leaves on agar in 24-well microtiter plates were sprayed with aqueous test solutions prepared from 10′000 ppm DMSO stock solutions. After drying the leaves were infested with N2 nymphs. The samples were assessed for mortality and growth inhibition in comparison to untreated samples 5 days after infestation.

Plutella xylostella [1] = experiment: Example B5: Plutella xylostella (Diamond Back Moth); settings: 192 h, application rate of 200 ppm, 24-well artificial diet, eggs, 8 days after infestation, read-out: control in at least one of the two categories (mortality or growth inhibition)
Description: Example B5: Plutella xylostella (Diamond Back Moth)
24-well microtiter plates with artificial diet were treated with aqueous test solutions prepared from 10′000 ppm DMSO stock solutions by pipetting. After drying, Plutella eggs were pipetted through a plastic stencil onto a gel blotting paper and the plate was closed with it. The samples were assessed for mortality and growth inhibition in comparison to untreated samples 8 days after infestation.

Diabrotica balteata = experiment: Example B1: Diabrotica balteata (Corn Root Worm); settings: 96 h, application rate of 200 ppm, sprayed maize sprouts, L2 larvae, 4 days after infestation, read-out: control in at least one of the two categories (mortality or growth inhibition)
Description: Example B1: Diabrotica balteata (Corn Root Worm)
Maize sprouts placed onto an agar layer in 24-well microtiter plates were treated with aqueous test solutions prepared from 10′000 ppm DMSO stock solutions by spraying. After drying, the plates were infested with L2 larvae (6 to 10 per well). The samples were assessed for mortality and growth inhibition in comparison to untreated samples 4 days after infestation.

Chilo suppressalis = experiment: Example B4: Chilo suppressalis (Striped Rice Stemborer); settings: 144 h, application rate of 200 ppm, artificial diet, L2 larvae, 6 days after infestation, read-out: control in at least one of the three categories (mortality, anti-feedant or growth inhibition)
Description: Example B4: Chilo suppressalis (Striped Rice Stemborer)
24-well microtiter plates with artificial diet were treated with aqueous test solutions prepared from 10′000 ppm DMSO stock solutions by pipetting. After drying, the plates were infested with L2 larvae (6-8 per well). The samples were assessed for mortality, anti-feeding effect, and growth inhibition in comparison to untreated samples 6 days after infestation. Control of Chilo suppressalis by a test sample is given when at least one of the categories mortality, anti-feedant effect, and growth inhibition is higher than the untreated sample.

Spodoptera littoralis = experiment: Example B9: Spodoptera littoralis (Egyptian Cotton Leaf Worm), cotton leaf disc spray; settings: foliar, 72 h, application rate of 200 ppm, sprayed cotton leaf discs, L1 larvae, 3 days after infestation, read-out: control in at least one of the three categories (mortality, anti-feedant or growth inhibition)
Plutella xylostella [2] = experiment: Example B12: Plutella xylostella (Diamondback Moth), 96-well artificial diet; settings: 216 h, application rate of 500 ppm, eggs, 9 days after infestation
Description: Example B12: Plutella xylostella (Diamondback Moth)
96-well microtiter plates containing artificial diet were treated with aqueous test solutions, prepared from 10′000 ppm DMSO stock solutions, by a liquid handling robot. After drying, eggs (˜30 per well) were infested onto a netted lid which was suspended above the diet. The eggs hatch and L1 larvae move down to the diet. The samples were assessed for mortality 9 days after infestation.

Myzus persicae = experiment: Example B8: Myzus persicae (Green Peach Aphid): Intrinsic Activity; settings: 120 h, test rate of 12 ppm, 24-well sucrose solution under Parafilm, 5 days after infestation
From the text: Example B8: Myzus persicae (Green Peach Aphid): Intrinsic Activity
Test compounds prepared from 10′000 ppm DMSO stock solutions were applied by pipette into 24-well microtiter plates and mixed with sucrose solution. The plates were closed with a stretched Parafilm. A plastic stencil with 24 holes was placed onto the plate and infested pea seedlings were placed directly on the Parafilm. The infested plate was closed with a gel blotting paper and another plastic stencil and then turned upside down. The samples were assessed for mortality 5 days after infestation.

CC(NC(=O)c1cc(Cl)nc(C(F)(F)F)c1)c1nccnc1-c1ncccn1 (stereo not drawn) [P1, 2-chloro-N-[1-(3-pyrimidin-2-ylpyrazin-2-yl)ethyl]-6-(trifluoromethyl)pyridine-4-carboxamide]
≥ 80%: percent control (mortality or growth inhibition) at 200 ppm (Euschistus heros) | percent control (mortality or growth inhibition) at 200 ppm (Plutella xylostella [1]) | percent control (mortality or growth inhibition) at 200 ppm (Diabrotica balteata) | percent control (mortality, anti-feedant effect or growth inhibition) at 200 ppm (Chilo suppressalis)

Cc1cnc(-c2nccnc2C(C)NC(=O)c2cc(C(F)(F)F)nc(C3(C#N)CC3)c2)nc1 (stereo not drawn) [P2, 2-(1-cyanocyclopropyl)-N-[1-[3-(5-methylpyrimidin-2-yl)pyrazin-2-yl]ethyl]-6-(trifluoromethyl)pyridine-4-carboxamide]
≥ 80%: percent control (mortality or growth inhibition) at 200 ppm (Euschistus heros) | percent control (mortality or growth inhibition) at 200 ppm (Plutella xylostella [1]) | percent control (mortality, anti-feedant effect or growth inhibition) at 200 ppm (Chilo suppressalis) | percent control (mortality, anti-feedant effect or growth inhibition) at 200 ppm (Spodoptera littoralis)

CC(NC(=O)c1cc(C(F)(F)F)cc(C2(C#N)CC2)c1)c1nccnc1-c1ncc(C2CC2)cn1 (stereo not drawn) [P3, 3-(1-cyanocyclopropyl)-N-[1-[3-(5-cyclopropylpyrimidin-2-yl)pyrazin-2-yl]ethyl]-5-(trifluoromethyl) benzamide]
≥ 80%: percent control (mortality or growth inhibition) at 200 ppm (Euschistus heros) | percent control (mortality or growth inhibition) at 200 ppm (Plutella xylostella [1]) | percent control (mortality, anti-feedant effect or growth inhibition) at 200 ppm (Chilo suppressalis) | percent control (mortality, anti-feedant effect or growth inhibition) at 200 ppm (Spodoptera littoralis)

CC(NC(=O)c1cc(C(F)(F)F)cc(C(F)(F)C2CC2)c1)c1nccnc1-c1ccc(Br)cn1 (stereo not drawn) [P21, N-[1-[3-(5-bromo-2-pyridyl)pyrazin-2-yl]ethyl]-3-[cyclopropyl(difluoro)methyl]-5-(trifluoromethyl) benzamide]
≥ 80%: mortality at 500 ppm (Plutella xylostella [2]) | percent control (mortality or growth inhibition) at 200 ppm (Euschistus heros) | percent control (mortality or growth inhibition) at 200 ppm (Plutella xylostella [1])

CC(NC(=O)c1cc(C(F)(F)F)cc(C(F)(F)C2CC2)c1)c1nccnc1-c1ncccn1 (stereo not drawn) [P30, 3-[cyclopropyl(difluoro)methyl]-N-[1-(3-pyrimidin-2-ylpyrazin-2-yl)ethyl]-5-(trifluoromethyl)benzamide]
≥ 80%: mortality at 12 ppm (Myzus persicae) | percent control (mortality or growth inhibition) at 200 ppm (Euschistus heros) | percent control (mortality or growth inhibition) at 200 ppm (Plutella xylostella [1]) | percent control (mortality or growth inhibition) at 200 ppm (Diabrotica balteata) | percent control (mortality, anti-feedant effect or growth inhibition) at 200 ppm (Chilo suppressalis) | percent control (mortality, anti-feedant effect or growth inhibition) at 200 ppm (Spodoptera littoralis)

CC(NC(=O)c1cc(C2CC2C(F)(F)F)cc(C(F)(F)F)c1)c1nccnc1-c1ncccn1 (stereo not drawn) [P37, N-[1-(3-pyrimidin-2-ylpyrazin-2-yl)ethyl]-3-(trifluoromethyl)-5-[2-(trifluoromethyl)cyclopropyl] benzamide]
≥ 80%: mortality at 12 ppm (Myzus persicae) | mortality at 500 ppm (Plutella xylostella [2]) | percent control (mortality or growth inhibition) at 200 ppm (Plutella xylostella [1]) | percent control (mortality or growth inhibition) at 200 ppm (Diabrotica balteata) | percent control (mortality, anti-feedant effect or growth inhibition) at 200 ppm (Chilo suppressalis) | percent control (mortality, anti-feedant effect or growth inhibition) at 200 ppm (Spodoptera littoralis)

CC(NC(=O)c1cc(C2CC2)cc(C(F)(F)F)c1)c1nccnc1-c1ncccn1 (stereo not drawn) [P41, 3-cyclopropyl-N-[1-(3-pyrimidin-2-ylpyrazin-2-yl)ethyl]-5-(trifluoromethyl)benzamide]
≥ 80%: mortality at 12 ppm (Myzus persicae) | percent control (mortality or growth inhibition) at 200 ppm (Plutella xylostella [1]) | percent control (mortality or growth inhibition) at 200 ppm (Diabrotica balteata) | percent control (mortality, anti-feedant effect or growth inhibition) at 200 ppm (Chilo suppressalis) | percent control (mortality, anti-feedant effect or growth inhibition) at 200 ppm (Spodoptera littoralis)

Cc1cnc(-c2nccnc2C(C)NC(=O)c2cc(C(F)(F)F)cc(C(C)(C)C#N)c2)nc1 (stereo not drawn) [P48, 3-(1-cyano-1-methyl-ethyl)-N-[1-[3-(5-methylpyrimidin-2-yl)pyrazin-2-yl]ethyl]-5-(trifluoromethyl)benzamide]
≥ 80%: percent control (mortality or growth inhibition) at 200 ppm (Euschistus heros) | percent control (mortality or growth inhibition) at 200 ppm (Plutella xylostella [1]) | percent control (mortality, anti-feedant effect or growth inhibition) at 200 ppm (Chilo suppressalis) | percent control (mortality, anti-feedant effect or growth inhibition) at 200 ppm (Spodoptera littoralis)
